Results taken from US9072729B2, “Method for treating fibrosis and cancer with imidazolium and imidazolinium compounds” (Agency for Science, Technology and Research, priority 2008, dated 2015).
Where two headings read alike, the source gives them in different places.

What was measured:
Assay type in all cases: cell-based, rat
HSC-T6 cells = assay: Glutathione (GSH) and GSSG assays; details: 48 h
Protocol: FIG. 3. […] (c) DBZIM and (d) TDBZIM both suppressed cellular GSSG (the oxidation product of GSH). (e) DBZIM and (f) TDBZIM both enhanced the GSH/GSSG ratio. HSC-T6 cells were incubated with compounds of various concentrations for 48 h, and assayed for the total GSH and GSSG amounts. The GSH/GSSG ratio was calculated as (GSH−GSSG)/GSSG. The GSH and GSSG amounts were normalized against the total protein. Note that DBZIM was dissolved in DMSO, and TDBZIM was dissolved in H2O. The data were presented as mean and SEM, N=6, *^aP<0.05, *^bP<0.01, *^cP<0.005, and *^dP<0.0005, when compared to the vehicle control.
Total cellular GSH and GSSG levels were determined by using assay kits from Cayman Chemical (Ann Arbor, Mich., USA) following the manufacturer's instructions. Briefly, HSC-T6 cells treated with DBZIM, TDBZIM, NAC, or EGCG were scalped and homogenized in phosphate buffered saline (PBS) by sonication at 60% frequency for 30 s, and the supernatant was collected after centrifugation at 16,000×g for 10 min at 4° C. Protein content of the samples was determined by bicinchonicic acid (BCA) assay.
For GSH assays, the protein sample was deproteinated by metaphosphoric acid (Aldrich, Catalog No. 23927-5), and the pH was adjusted by triethanolamine (Aldrich, Catalog No. T5830-0) according to the manual. The sample was ready for assaying total GSH including both the reduced and oxidized forms. Quantification of GSSG, exclusive of GSH, was performed by first derivatizing GSH with 2-vinylpyridine and assaying separately. Colorimetric signal was recorded at 405 nm with a Tecan Safire II plate reader. The levels of GSH or GSSG were determined as nmol/μg protein.

HSC T6 cells = assay: MTS based proliferation assay (cytotoxicity) on cultured HSC-T6 cells; details: for IC50: read-out: IC50 (toxicity on T6 cells); for inhibition of cell proliferation: 48 h, 10% FBS DMEM
Protocol: FIG. 1. Cytotoxicity of (a) DBZIM and (b) TDBZIM. […] The signal was normalized against a vehicle control treatment (0 μM of compound). The data were obtained from four independent experiments, and presented as mean and standard error or mean (SEM), *^aP<0.05, *^bP<0.01 and *^cP<0.005.
Firstly we assessed the cytotoxicity of DBZIM and TDBZIM on cultured HSC-T6 cells using a 3-(4,5-dimethylthiazol-2-yl)-5-(3-carboxymethoxyphenyl)-2-(4-sulfophenyl)-2H-tetrazolium (MTS) based proliferation assay kit (Promega, Wis., USA). […]

SOD = assay: Superoxide dismutase (SOD) activity assay in treated cells; details: HSC T6 cells, 48 h
Protocol: (§1) FIG. 4. Effect of DBZIM and TDBZIM on GPx, CAT, SOD and GST. DBZIM affected (a) GPx activity and (c) CAT activity in a dosage-dependent manner. TDBZIM suppressed (b) GPx activity and (d) CAT activity. (e) DBZIM and (f) TDBZIM had little effect on SOD activity. (g) DBZIM induced GST activity. HSC T6 cells were treated with compounds of various concentrations for 48 h, and homogenized by sonication (60% frequency for 30 s) in PBS (pH 7.4, 1 mM of EDTA) for GPx, GST and CAT assays, or in 20 mM of HEPES buffer containing 1 mM of EGTA, 210 mM of mannitol and 70 mM of sucrose (pH 7.2) for SOD assay. Enzyme activity was normalized against total protein. DBZIM was dissolved in DMSO, and TDBZIM was dissolved in H2O. The data were presented as mean and SEM, N=6, *^aP<0.05, *^bP<0.01, *^cP<0.005, and *^dP<0.0005, when compared to the vehicle control.
(§2) Activity levels of three anti-oxidant enzymes, GPx, CAT and SOD, were determined using assay kits from Cayman Chemical. To assay GPx and CAT activities, protein samples were harvested in ice-cold PBS containing 1 mM of EDTA. To assay SOD activity, protein samples were prepared in 20 mM of N-(2-hydroxyethyl)-piperazine-N′-2-ethanesulfonic acid (HEPES) buffer containing 1 mM of ethylene glycol-bis(2-aminoethylether)-N,N,N′,N′-tetraacetic acid (EGTA), 210 mM of mannitol and 70 mM of sucrose. Protein content was determined by BCA assay.
Total SOD, including all three types of SOD (Cu/Zn-, Mn- and Fe-SOD), was quantified using a tetrazolium salt to detect superoxide radicals generated by xanthine oxidase and hyposanthine. […] SOD activity was expressed as U/mg protein.

GPx = assay: Glutathione peroxidase (GPx) activity assay in treated cells
Protocol: as §1, §2
GPx activity was indirectly measured by a coupled reaction with GSH reductase. Oxidized GSH, produced upon reduction of H2O2 by GPx, is recycled to its reduced state by glutathione reductase (GR) and nicotinamide adenine dinucleotide phosphate (NADPH). The oxidation of NAPDH is proportional to the GPx activity, and can be measured as a decrease in absorbance at 340 nm. GPx activity was expressed as nmol/min/mg protein.

[1] = Rattus norvegicus, HSC-T6, HSC T6 cells

Molecule	depletion of GSSG (HSC-T6 cells; 10 μM) [%]	enhancement of GSH/GSSG ratio (HSC-T6 cells; 10 μM) [%]	depletion of GSSG (HSC-T6 cells; 50 μM) [%]	enhancement of GSH/GSSG ratio (HSC-T6 cells; 50 μM) [%]	enhancement of GSH/GSSG ratio (HSC-T6 cells; 100 μM) [%]	effect on SOD activity (SOD)	attenuation of GPx activity (GPx; 10 μM, 48 h) [%]	attenuation of GPx activity (GPx; 50 μM, 48 h) [%]	IC50 (HSC T6 cells; [1]) [mM]	further results
1,3,5-tris(4-methyl-imidazolium)-linked cyclophane.3Br [TDBZIM]	12	14	35	65	106	did not show much effect	18	25	–	depletion of GSSG (HSC-T6 cells; 100 μM): 50%; effect on total cellular GSH level (HSC-T6 cells; 10-100 μM): did not alter; IC50 (HSC T6 cells; HSC T6 cells): ~0.5 mM; inhibition of cell proliferation (HSC T6 cells; TDBZIM 125-200 μM): 13-19%; attenuation of GPx activity (GPx; 100 μM, 48 h): 34%
[Br-].c1ccc(Cn2cc[n+](Cc3ccccc3)c2)cc1 [DBZIM, 1,3-bisbenzylimidazolium bromide]	13	8	23	15	23	did not show much effect	10	10	1.7	attenuation of total GSH level (HSC-T6 cells; 10 μM): 7%; attenuation of total GSH level (HSC-T6 cells; 50 μM): 12%; attenuation of total GSH level (HSC-T6 cells; 100 μM): 20%; GSH/GSSG ratio relative to control group (HSC-T6 cells; 300 μM): 7.4 fold; depletion of GSSG (HSC-T6 cells; 300 μM): 85%; enhancement of total GSH level (HSC-T6 cells; 300 μM, without statistical significance): 8%; depletion of GSSG (HSC-T6 cells; 1001 μM): 35%; inhibition of cell proliferation (HSC T6 cells; DBZIM 250-400 μM): 3.5-8.9%; enhancement of GPx activity (GPx; 300 μM, 48 h): 15%
CC(C)n1cc[n+](C(C)C)c1.F[B-](F)(F)F [DPIM, 1,3-diisopropylimidazolium tetrafluoroborate]	–	–	–	–	–	–	–	–	3.1	–
(−)-Epigallocatechin gallate [EGCG, reference compound]	–	–	–	–	–	did not show much effect	–	–	–	reduction of GSSG (references) (HSC-T6 cells; EGCG 25 μM, NAC 5 mM): 42%; increase in GSH/GSSG ratio (references) (HSC-T6 cells; NAC 5 mM, EGCG 25 μM): 2 fold; induction of total GSH (references) (HSC-T6 cells; NAC 5 mM, EGCG 25 μM): 19%; attenuation of GPx activity (references) (GPx; EGCG 25 μM, NAC 5 mM): 53%
